# Test results published in patent publication US9821002B2, “Method for alleviating radiation injury with isorhamnetin-3-O-β-D-glucoside” (Sinotai Oncology Associate., Ltd., priority 2015, dated 2017).
# System: NMuMG cells
# Test: Apoptosis assay (FITC Annexin V/PI) after X-ray irradiation
# Type: cell-based, mouse
# Details: 2 h pretreatment, X-ray 15 Gy, 72 hours, mean ± SEM
# Text: Four groups of BNL CL.2 cells (i.e., a normal control group referred to as Normal Control Group 1-A, an X-ray control group referred to as X-Ray Control Group 1-A, and two experimental groups referred to as Experimental Groups 1-A to 2-A), and six groups of NMuMG cells (i.e., a normal control group referred to as Normal Control Group 1-B, an X-ray control group referred to as X-Ray Control Group 1-B, two isorhamnetin groups referred to as Isorhamnetin Groups 1 to 2, and two experimental groups referred to as Experimental Groups 1-B to 2-B), were prepared based on the procedure set forth in “Source and cultivation of cell lines” of “Experimental materials”. BNL CL.2 cells in each group were cultivated using 5 mL of a corresponding medium shown in Table 1 and a 6-cm Petri dish in an amount of 2×10^5 cells per dish. Likewise, NMuMG cells in each group were cultivated using 5 mL of a corresponding medium shown in Table 1 and a 6-cm Petri dish in an amount of 2.5×10^5 cells per dish. The cultivation was conducted in an incubator (37° C., 5% CO2) for 24 hours.
# Subsequently, medium was replaced with fresh medium. The obtained cultures in Experimental Groups 1-A, 1-B, 2-A, and 2-B were pretreated with the stock solution of isorhamnetin-3-O-β-D-glucoside, and the obtained cultures in Isorhamnetin Groups 1 to 2 were pretreated with the stock solution of isorhamnetin.
# The culture in each group was then cultivated in an incubator (37° C., 5% CO2) for two hours. The resultant culture was used for the following experiments in sections B to D.
# The cultures in X-Ray Control Group 1-A, X-Ray Control Group 1-B, Isorhamnetin Group 1, Isorhamnetin Group 2, Experimental Group 1-A, Experimental Group 1-B, Experimental Group 2-A, and Experimental Group 2-B, prepared according to section A of “Experimental procedures” in this example, were subjected to X-ray irradiation using a linear accelerator at a dose of 15 Gy. The cultures in Normal Control Groups 1-A and 1-B received no X-ray irradiation treatment. The culture of BNL CL.2 cells in each group was cultivated using a 6-cm Petri dish in an incubator (37° C., 5% CO2) for 96 hours, and the culture of NMuMG cells in each group was cultivated using a 6-cm Petri dish in an incubator (37° C., 5% CO2) for 72 hours. 1 mL of trypsin-EDTA was added to the culture in each group so as to detach the cells from the bottom of the Petri dish. Following this, 1 mL of a fresh medium (corresponding to the medium described in Table 1) was added to neutralize the activity of the trypsin, and the resultant cell suspension was transferred to a centrifuge tube with a pipette, followed by centrifugation at 1200 rpm for three minutes. The supernatant was removed, and the cell pellet thus obtained was washed once with cold PBS (pH 7.4), followed by centrifugation at 1200 rpm for 3 minutes. The supernatant was removed, and 100 μL of cold Annexin V binding buffer (BD Pharmingen™) was added to sufficiently re-suspend the cell pellet thereby obtaining a cell suspension having a cell concentration of 1.0×10^6 cells/mL. Afterward, 5 μL of FITC Annexin V (BD Pharmingen™) and 5 μL of propidium iodide (PI) staining solution (BD Pharmingen™) were added to the obtained cell suspension, followed by mixing evenly and standing in the dark at 4° C. for 30 minutes so as to obtain stained cells.
# Subsequently, the stained cells were analyzed using BD Accuri™ C6 flow cytometry, in which cells that could be stained with FITC Annexin V but not with PI (i.e., FITC Annexin V positive and PI negative) represented cells that were induced with early apoptosis; cells stained with both FITC Annexin V and PI (i.e., FITC Annexin V positive and PI positive) represented cells that were induced with late apoptosis; and cells that could not be stained with FITC Annexin V and PI (i.e., FITC Annexin V negative and PI negative) represented viable cells. The number of stained cells was calculated using BD Accuri™ C6 software. […]
smiles,measurement,setting,value
COc1cc(-c2oc3cc(O)cc(O)c3c(=O)c2O)ccc1O [Isorhamnetin],Apoptosis percentage,15 μM,22.87 ± 1.33%
same,Apoptosis percentage,30 μM,22.13 ± 0.29%
